# PMC2747051 (Biochemistry, 2009)
# Assays:
# [1] = tested on: MoeE5 (Streptomyces viridosporus); test: anion-exchange HPLC; format: biochemical; conditions: 1 mM UDP-GlcUA, 1 uM enzyme, 20 mM Tris-HCl pH 7.5, 37 °C, 2 h
# [2] = tested on: MoeGT1 (Streptomyces viridosporus); test: LC/MS conversion time course; format: biochemical; conditions: donor 1 mM, 40 uM compound 7, 800 nM enzyme, 5 mM MgCl2, pH 7.5, 37 °C
structure (smiles),measurement,setting,value
O=C(O)[C@H]1O[C@H](OP(=O)(O)OP(=O)(O)OC[C@H]2O[C@@H](n3ccc(=O)[nH]c3=O)[C@H](O)[C@@H]2O)[C@H](O)[C@@H](O)[C@H]1O [UDP-GalUA],anion-exchange HPLC,[1],we conclude that MoeE5 epimerizes UDP-GlcUA to UDP-GalUA
same,LC/MS conversion time course,[2],showed a clear preference for UDP-GalUA over UDP-GlcUA
